Our source for the AC50 and activity change, negative = cytotoxicity values is PubChem BioAssay AID977620 (Broad Institute, 2014).

The term AC50 denotes the concentration giving half of the maximal activity seen.

Activity calls are given as the source filed them.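 How the source made its calls: active means signal-lowering curve whose fitted AC50 is at or under twice the top valid dose of that sample; inconclusive means flat fit with a moderate drop, or a poor fit; inactive means the rest.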

For the first assay, the system named is A549 viability, CellTiter-Glo ATP luminescence, 72 h. Briefly: viability loss in A549 lung cancer cells – cell-based, CellTiter-Glo luminescence, dry powder, set 14, cytotoxicity control, dose response (AID 977620).
Settings: not given
For the molecule `Cc1cnc(NC(=O)c2cc(S(=O)(=O)N(C)C)ccc2N2CCC2)s1`, the AC50 is > 60 µM (inactive).
Still for that read-out and setting: in the case of `Cc1cnc(NC(=O)c2cc(S(=O)(=O)N(CC(C)C)CC(C)C)ccc2N2CCCC2)s1` it was > 60 µM (inactive); in that of `CCN(CC)c1ccc(S(=O)(=O)N(C)C)cc1C(=O)Nc1ncc(C)s1`, > 60 µM (inactive); in that of `Cc1cnc(NC(=O)c2cc(S(=O)(=O)N3CCOCC3)ccc2N2CCCC2)s1`, 23.3 µM.
The same measure, in the same setting: in the case of `CN(C)S(=O)(=O)c1ccc(N2CCCC2)c(C(=O)Nc2ccc(Br)cc2)c1` it was > 60 µM (inactive); in that of `Cc1ccc(NC(=O)c2cc(S(=O)(=O)N(C)C)ccc2N2CCCC2)cc1`, > 60 µM (inactive).
Still for that read-out and setting: in the case of `COc1ccc2sc(NC(=O)c3cc(S(=O)(=O)N(C)C)ccc3N3CCCC3)nc2c1` it was > 60 µM (inactive); in that of `Cc1cnc(NC(=O)c2cc(S(=O)(=O)N3CCCCC3)ccc2N2CCCC2)s1`, > 60 µM (inactive).
As to `CCN(CC)S(=O)(=O)c1ccc(N2CCCC2)c(C(=O)Nc2ncc(C)s2)c1`, the AC50 was > 60 µM (inactive).
Consider `Cc1cnc(NC(=O)c2cc(S(=O)(=O)N(C)C)ccc2N2CCCCC2)s1`, for which the AC50 is > 60 µM (inactive).
Same read-out and setting: in the case of `Cc1cnc(NC(=O)c2cc(S(=O)(=O)N(C)C)ccc2C2CCCC2)s1` it was > 60 µM (inactive); in that of `CN(C)S(=O)(=O)c1ccc(N2CCCC2)c(C(=O)Nc2ccccc2)c1`, > 60 µM (inactive); in that of `CN(C)S(=O)(=O)c1ccc(N2CCCC2)c(C(=O)Nc2nccs2)c1`, > 60 µM (inactive).
Same read-out and setting: in the case of `Cc1cnc(NC(=O)c2cc(S(=O)(=O)N3CCNCC3)ccc2N2CCCC2)s1` it was > 60 µM (inactive); in that of `CN(C)S(=O)(=O)c1ccc(N2CCCC2)c(C(=O)Nc2nc3ccccc3s2)c1`, 25.9 µM.

Tested on in another assay: not listed separately
Described as above. The following applies: A549 viability, CellTiter-Glo ATP luminescence, 72 h; at 30 µM (top of the series). (Cellular ATP, detected with luciferase, serves as a proxy for viable cell number.)
As to `CN(C)C(=O)c1cc(S(=O)(=O)N(C)C)ccc1N1CCCC1`, the activity change, negative = cytotoxicity was -2.1% (inactive).
Regarding `COc1ccc(NC(=O)c2cc(S(=O)(=O)N(C)C)ccc2N2CCCC2)cc1`, the activity change, negative = cytotoxicity was -10.6% (inactive).
Still for that read-out and setting: in the case of `Cc1ccccc1NC(=O)c1cc(S(=O)(=O)N(C)C)ccc1N1CCCC1` it was -11.9% (inactive); in that of `CN(C)S(=O)(=O)c1ccc(N2CCCC2)c(C(=O)Nc2cccc(F)c2)c1`, -13.3% (inactive); in that of `CN(C)CCCN(Cc1cc2ccccc2[nH]c1=O)C(=O)NCc1ccccc1`, -11.2% (inactive).
The same measure, in the same setting: in the case of `Cc1cnc(NC(=O)c2cccc(S(=O)(=O)N(C)C)c2)s1` it was 3.41% (inactive); in that of `CN(C)S(=O)(=O)c1ccc(N2CCCC2)c(C(=O)Nc2cccnc2)c1`, -10% (inactive).
On the same count and under the same terms, in the case of `CN(C)S(=O)(=O)c1ccc(N2CCCC2)c(C(=O)Nc2ccncc2)c1` it was -5.75% (inactive).
`Cc1cnc(NC(=O)c2cc(S(=O)(=O)NCc3ccccc3)ccc2N2CCCC2)s1`: the activity change, negative = cytotoxicity was -16.4% (inactive).
For `CN(C)S(=O)(=O)c1ccc(N2CCCC2)c(C(=O)NC2CCCCC2)c1`, the activity change, negative = cytotoxicity is -6.42% (inactive).
Still for that read-out and setting: in the case of `Cc1cnc(NC(=O)c2cc(S(=O)(=O)N(C)c3ccccc3)ccc2N2CCCC2)s1` it was 0.919% (inactive).
On the same count and under the same terms, in the case of `CN(C)CCCN(Cc1cc2ccccc2[nH]c1=O)C(=O)Nc1ccccc1` it was -3.6% (inactive).
Turning to `CN(C)S(=O)(=O)c1ccc(N2CCCC2)c(C(=O)N2CCOCC2)c1`, the activity change, negative = cytotoxicity is -6.88% (inactive).
Same read-out and setting: in the case of `COc1ccccc1NC(=O)c1cc(S(=O)(=O)N(C)C)ccc1N1CCCC1` it was -6.88% (inactive); in that of `COc1cccc2sc(NC(=O)c3cc(S(=O)(=O)N(C)C)ccc3N3CCCC3)nc12`, -3.6% (inactive); in that of `Cc1cnc(NC(=O)c2cc(S(=O)(=O)N(C)C)ccc2N(C)C)s1`, -11.3% (inactive).
Still for that read-out and setting: in the case of `Cc1cnc(NC(=O)c2cc(S(=O)(=O)N(C)C)ccc2N2CCNCC2)s1` it was -10.1% (inactive); in that of `COc1ccc2nc(NC(=O)c3cc(S(=O)(=O)N(C)C)ccc3N3CCCC3)sc2c1`, -22.2% (inactive); in that of `CN(C)S(=O)(=O)c1ccc(N2CCCC2)c(C(=O)Nc2ccccc2Cl)c1`, -2.95% (inactive).
Consider `Cc1nc(NC(=O)c2cc(S(=O)(=O)N(C)C)ccc2N2CCCC2)n[nH]1`, for which the activity change, negative = cytotoxicity is -5.15% (inactive).
On the same count and under the same terms, in the case of `Cc1nnc(NC(=O)c2cc(S(=O)(=O)N(C)C)ccc2N2CCCC2)s1` it was -7.41% (inactive).
